What was measured:
[1] = target: human emopamil binding protein and human 7-dehydrocholesterol reductase co-expressing cells (hEBP-DHCR7 membrane) (Homo sapiens (Human), UniProt Q15125); experiment: Radioligand filter binding assay on hEBP-DHCR7 membrane; conditions: [3H]-(S)-6-(2-Methyl-3-(6-(trifluoromethyl)pyridin-3-yl)propyl)-2-thia-6-azaspiro[3.4]octane 2,2-dioxide radioligand, HEK293 membrane co-expressing hEBP and hDHCR7
How it was run: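 HEK293 cells transiently co-expressing human EBP and DHCR7 supplied whole-cell membranes (10 μg/well), incubated 3 h at 22 °C with [3H]-labelled spiro-octane dioxide ligand (added at 25 nM) and compound (0.06-5000 nM final, 8 doses, n=2). Bound ligand was collected on PEI-treated GF/B filters and counted by scintillation. IC50 was Hill-fitted from % inhibition and reported as Ki.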

EpiSC-derived OPCs = experiment: In vitro phenotypic screening of OPCs (MBP staining, high-content imaging); type: cell-based, mouse; conditions: Mus musculus, 72 h, percentage of MBP+ oligodendrocytes, 3 days, 0.5 nM to 1000 nM; read-out: OPC EC50
How it was run: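 EpiSC-derived mouse OPCs seeded at 150,000/cm^2 on laminin in N2B27 without growth factors, treated 3 days at 37° C. with compound (8 points, 1000 nM to 0.5 nM). Fixed cells stained for MBP and DAPI and imaged; percentage of MBP+ oligodendrocytes fitted by Hill equation for EC50.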

human emopamil binding protein and human 7-dehydrocholesterol reductase co-expressing cells (hEBP-DHCR7 membrane), sequence (Q15125 whole entry): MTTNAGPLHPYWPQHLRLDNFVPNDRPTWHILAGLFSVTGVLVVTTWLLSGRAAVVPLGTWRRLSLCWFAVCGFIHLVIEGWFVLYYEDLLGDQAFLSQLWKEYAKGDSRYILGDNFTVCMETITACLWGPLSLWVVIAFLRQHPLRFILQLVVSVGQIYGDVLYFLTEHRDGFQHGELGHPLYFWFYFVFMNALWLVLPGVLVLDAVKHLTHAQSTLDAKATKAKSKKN

| Ki [1] [nM] | EC50 (EpiSC-derived OPCs) [nM] | Compound |
| --- | --- | --- |
| 34 | 29 | CC(C)n1nc(-c2cncc(OC(F)F)c2)cc1[C@H]1CC[C@H](N2CCC3(C2)CS(=O)(=O)C3)CC1 [Compound 33A, 6-((1r,4r)-4-(3-(5-(Difluoromethoxy)pyridin-3-yl)-1-isopropyl-1H-pyrazol-5-yl)cyclohexyl)-2-thia-6-azaspiro[3.4]octane 2,2-dioxide] |
| 28 | 53 | CC(C)n1nc(-c2cncc(OC(F)F)c2)cc1[C@H]1CC[C@@H](N2CCC3(C2)CS(=O)(=O)C3)CC1 [Compound 33B, (Cis)-6-(4-(3-(5-(Difluoromethoxy)pyridin-3-yl)-1-isopropyl-1H-pyrazol-5-yl)cyclohexyl)-2-thia-6-azaspiro[3.4]octane 2,2-dioxide] |
| 280 | 210 | CC(C)n1nc(N2CC(F)(F)C2)cc1[C@H]1CC[C@H](N2CCC3(C2)CS(=O)(=O)C3)CC1 [Compound 35, 6-((1r,4r)-4-(3-(3,3-Difluoroazetidin-1-yl)-1-isopropyl-1H-pyrazol-5-yl)cyclohexyl)-2-thia-6-azaspiro[3.4]octane 2,2-dioxide] |
| 59 | 22 | O=S1(=O)CC2(CCN([C@H]3CC[C@@H](c4cc(C(F)(F)F)nn4C4CC4)CC3)CC2)C1 [Compound 40A, 7-((1r,4r)-4-(1-cyclopropyl-3-(trifluoromethyl)-1H-pyrazol-5-yl)cyclohexyl)-2-thia-7-azaspiro[3.5]nonane 2,2-dioxide] |
| 183 | 71 | O=S1(=O)CC2(CCN([C@H]3CC[C@H](c4cc(C(F)(F)F)nn4C4CC4)CC3)CC2)C1 [Compound 40B, 7-((1s,4s)-4-(1-cyclopropyl-3-(trifluoromethyl)-1H-pyrazol-5-yl)cyclohexyl)-2-thia-7-azaspiro[3.5]nonane 2,2-dioxide] |
| 23 | 20 | Cc1cc(C(F)(F)F)cnc1[C@H]1CC[C@H](N2CCC3(C2)CS(=O)(=O)C3)CC1 [Compound 47B, 6-((1r,4r)-4-(3-methyl-5-(trifluoromethyl)pyridin-2-yl)cyclohexyl)-2-thia-6-azaspiro[3.4]octane 2,2-dioxide] |
